Reference: PMC7915902, “Preclinical Evaluation of [^18F]FACH in Healthy Mice and Piglets: An ^18F-Labeled Ligand for Imaging of Monocarboxylate Transporters with PET” (International Journal of Molecular Sciences, 2021)
Like-named read-outs stand apart in the source and are kept apart here.

Key:
MCT1 [1] = test system: MCT1; design: method as in PMID 8779821; conditions: cited from earlier work
MCT1 [2] = test system: MCT1; design: method as in PMID 31017677; conditions: L-[14C]lactate uptake, rat brain endothelial cells; read-out: IC50 towards MCT1; cited from earlier work
MCT4 = test system: MCT4; design: method as in PMID 31017677; conditions: L-[14C]lactate uptake, MDA-MB231 cells; read-out: IC50 towards MCT4; cited from earlier work
MCTs [3] = test: Autoradiographic competition study in mouse kidney cryosections; assay type: binding; conditions: 300 nM competitor, 1 nM [18F]FACH
Protocol: Cryosections from the mouse kidney (10 µm) were cut on a microtome (Microm HM560, Thermo Scientific Microm, Fisher Scientific GmbH, Schwerte, Germany), mounted on glass slides (SuperFrost, Thermo Scientific Menzel, Fisher Scientific GmbH), dried for two hours at room temperature, and stored at −25 °C. Before the binding experiment, the tissue slices were dried under a stream of cold air, pre-incubated with PBS (pH 7.4) for 15 min at room temperature and dried again before incubation with PBS containing [^18F]FACH (1.2 nM) without (total binding) and with different concentrations of FACH-Na (10 µM–0.1 nM; homologous competition) for 60 min. Specific binding to MCTs of [^18F]FACH in cryosections of mouse kidney was determined after co-incubation of 1 nM [^18F]FACH with vehicle or 300 nM α-CCa-Na or 300 nM reference compound (homologous competition).
The incubation was terminated by washing with ice-cold buffer (50 mM TRIS-HCl, pH 7.4) twice for two minutes followed by dipping in ice-cold demineralized water for 5 s and drying under a stream of cold air. […] KD and Bmax values were calculated by the simplified Cheng and Prusoff equation (http://www3.uah.es/farmamol/Public/GraphPad/radiolig.htm, accessed on 5 February 2021):(1) KD=Ki=IC50−Radioligand (M) (2) Bmax=Top−Bottom/Radioligand (M)/(KD+Radioligand (M))

MCTs [4] = test: Dynamic PET/MRI in mice with pre-treatment; assay type: in vivo, mouse; conditions: for AUC0–60 min gall bladder / AUC0–60 min kidney cortex / AUC0–60 min liver / AUC0–60 min small intestine / AUC0–60 min whole blood: mouse, in vivo
Protocol: (§1) The biodistribution of [^18F]FACH in mice was assessed by small animal PET (Nanoscan, Mediso, Budapest, Hungary) with dynamic 60 min emission recordings, followed by T1 weighted GRE MR (TR = 15.0 ms, TE = 2.4 ms, FA = 25°) imaging for anatomical correlations and attenuation correction. The mice (n = 20) weighing 32.2 ± 2.9 g were anaesthetised with 2% isoflurane in 60% oxygen, and placed on a thermostatically heated animal bed. The animals then received i.v. injections of 0.9% saline (control), reference compound (10 mg/kg), or α-CCA-Na (25 mg/kg) ten min prior or 20 min after (displacement studies) [^18F]FACH administration (2.3–8.6 MBq, 0.5–11.2 nmol/kg). List mode PET data were binned as a series of attenuation-corrected sinogram frames (12 × 10 s, 6 × 30 s, 5 × 60 s and 10 × 300 s) and were reconstructed by Ordered Subset Expectation Maximization (OSEM3D) with four iterations, six subsets and a voxel size of 0.4 mm³ (Nucline v2.01, Mediso).
(§2) The analysis of reconstructed datasets was performed with PMOD software (v4.103, PMOD Technologies LLC, Zurich, Switzerland).
(§3) Data are shown in mean ± standard deviation (SD). Group differences were tested by Student’s t-test, with p < 0.05 designated as significant. Area Under the Curves (AUCs) and corresponding 95% confidence intervals (CI95%s) were calculated with GraphPad Prism (v.8.2) following the assumptions described by Gagnon et al..

MCTs [5] = test: PET displacement study in mice; assay type: in vivo, mouse
Protocol: as §1, §2

MCTs [6] = assay type: in vivo, piglet
Protocol: The piglets (n = 6) were inititally anaesthetised with intramuscular injections of stresnil and ursotamin, and anaesthesia was maintained with intravenous ursotamin and midazolam, as required. The hematocrit was measured in an ear vein blood sample collected just prior to imaging. Either saline (n = 3) or 25 mg/kg α-CCA-Na (n = 3) in saline was administrated ten min before i.v. administration of [^18F]FACH (261–327 MBq, corresponding to 218–852 pmol/kg) via an ear vein. Imaging was performed with a simultaneous hybrid PET/MR system (mMR Biograph; Siemens, Erlangen, Germany) equipped with dedicated phased-array surface. PET data were reconstructed into a 128 × 128 matrix (voxel size: 1.40 × 1.40 × 2.03 mm^3) using the built-in OSEM3D algorithm with eight iterations, 21 subsets, and a 3-mm Gaussian filter. The attenuation and decay corrected dynamic sequence consisted of 32 frames as follows: 1 × 15, 11 × 30, 1 × 45, 5 × 60, 1 × 90, 5 × 120, 1 × 180, 4 × 240, 1 × 300, 2 × 360 s, whereas activity concentrations in VOIs are represented in units of SUV or percentage of injected dose (%/ID). After completing the dynamic PET recording, piglets were euthanized with an i.v. overdose of T61 (Intervet Deutschland GmbH, Unterschleißheim, Germany) and tissues were sampled for radio-metabolism studies in selected animals.
as §2, §3

MCTs [7] = test: Compartmental kinetic modelling of PET data in mice; assay type: in vivo, mouse; conditions: kidney cortex, 2-TCM, [18F]FACH after α-CCA-Na pre-treatment
Protocol: (§4) Table 4 includes the results of 1-tissue-compartment kinetic modelling (1-TCM) of [^18F]FACH in the kidney cortex and the liver of the control and pre-treated mouse groups (α-CCA-Na and reference compound). […] The BPND was estimated as the ratio of [VT(control)/VT(pre-treatment)] − 1.
(§5) Kinetic analysis of reconstructed datasets was performed with PMOD software. First, image derived arterial input functions (IDIFs) were obtained from the left ventricle in mice and from an artery close to the kidney in piglet studies. IDIFs were corrected for partial volume effects, plasma fraction from hematocrit values (individually determined for each piglet directly before PET imaging; for mice set to 0.51 according to CD-1 Mouse Hematology sheet from Charles River Laboratories, 2011) and radio-metabolites (measured for piglets, and set to zero for mice). Tri-exponential metabolite-corrected fitted input functions were used for one and two tissue compartment modelling (1-TCM/2-TCM) of time activity curves (TACs) in tissue volumes of interest (VOIs). For both species the specific blood volume was set to 0.15 mL g^−1 in the kidney cortex and 0.128 mL g^−1 in the liver, according to published values.

MCTs [8] = test: Compartmental kinetic modelling of PET data in piglets; assay type: in vivo, piglet; conditions: living piglets, α-CCA-Na dose
Protocol: as §4, §5

[9] = in vivo
[10] = Metabolism and renal excretion of [18F]FACH in piglets (radio-HPLC, graphical analysis); conditions: piglet pre-treated with α-CCA-Na, 60 min p.i.
[11] = Extended single dose toxicity study in rats; assay type: in vivo, rat
Protocol: The extended single dose toxicity studies of FACH in male (n = 15) and female (n = 15) outbred Wistar rats were performed in the Biological Testing Laboratory (BTL) in Russia (Study Number 680/19). The test item FACH-Na was administered by single bolus i.v. injection at doses of 6.2, 62 and 620 μg/kg body weight (bw). Mortality, clinical pathology parameters (hematology and serum chemistry), organ weights and microscopic tissue parameters were investigated 24 h and two weeks after treatment.

[12] = mice, reference compound 10 mg/kg pre-treatment

For `N#CC(=Cc1ccc(O)cc1)C(=O)O` [α-CCA, α-cyano-4-hydroxycinnamic acid], the “selectivity for MCT1 (MCT1/4) compared to the other subtypes” value (MCT1 [1]) is given as “ten-fold higher selectivity”.
For `CCCN(CCCF)c1ccc(/C=C(\C#N)C(=O)O)c(OC)c1` [FACH], the IC50 (MCT1 [2]) is given as 11 nM and the IC50 (MCT4) is given as 6.5 nM.
For `N#CC(=Cc1ccc(O)cc1)C(=O)[O-].[Na+]` [α-CCA-Na, reference compound], the “displacement of [18F]FACH” value (MCTs [3]) was 8%, the “AUC0–60 min gall bladder” value (MCTs [4]; 25 mg/kg) was 486 SUV min and the “AUC0–60 min kidney cortex” value (MCTs [4]; 25 mg/kg) was 153 SUV min. The “AUC0–60 min liver” value (MCTs [4]; 25 mg/kg) was 417 SUV min, the “AUC0–60 min small intestine” value (MCTs [4]; 25 mg/kg) was 180 SUV min and the “AUC0–60 min whole blood” value (MCTs [4]; 25 mg/kg) was 63 SUV min. For the same molecule, the “decrease of kidney cortex SUV” value (MCTs [5]; mice, 5 min after i.v. α-CCA-Na 25 mg/kg given 20 min after tracer) was 66%, the “kidney cortex SUV” value (MCTs [5]; mouse, in vivo) was 1.41 ± 0.36 and the “AUC0–60 min gall bladder” value (MCTs [6]; in vivo, 25 mg/kg) was 4453 SUV min. The “AUC0–60 min kidney cortex” value (MCTs [6]; in vivo, 25 mg/kg) was 178 SUV min, the “AUC0–60 min kidney medulla” value (MCTs [6]; in vivo, 25 mg/kg) was 1264 SUV min and the “AUC0–60 min liver” value (MCTs [6]; in vivo, 25 mg/kg) was 286 SUV min. The “AUC0–60 min plasma” value (MCTs [6]; in vivo, 25 mg/kg) was 40 SUV min, the “AUC0–60 min vertebrae” value (MCTs [6]; in vivo, 25 mg/kg) was 100 SUV min and the “kidney uptake blocked by α-CCA-Na pre-treatment” value (MCTs [6]; piglets) was “about 60%”. For the same molecule, the “reduction of [18F]FACH AUC0–60min in kidney medulla” value (MCTs [6]; piglets, α-CCA-Na 25 mg/kg pre-treatment) was 50%, the “BPND = k3/k4 (2-TCM)” value (MCTs [7]) was 12.96±5.40 1/1 and the “specifically bound radiotracer displaced” value (MCTs [8]) was “around 50%”. For the same molecule, the “rate constant for elimination of radio-metabolites from plasma (k−1)” value [9] was 0.020 ± 0.003 min⁻¹, the “selectivity for MCT1 (MCT1/4) compared to the other subtypes” value (MCT1 [1]) was 10 fold and the “parent fraction of [18F]FACH in kidney cortex” value [10] was 17.0%.
For `CCCN(CCCF)c1ccc(/C=C(\C#N)C(=O)[O-])c(OC)c1.[Na+]` [FACH-Na], the “displacement of [18F]FACH” value (MCTs [3]) was 41%, the “reduction of [18F]FACH AUC0–60min in kidney cortex vs control” value (MCTs [4]; [12]) was 79% and the “reduction of [18F]FACH AUC0–60min in liver vs control” value (MCTs [4]; [12]) was 44%. For the same molecule, the “AUC0–60 min gall bladder” value (MCTs [4]; 10 mg/kg) was 1388 SUV min, the “AUC0–60 min kidney cortex” value (MCTs [4]; 10 mg/kg) was 62 SUV min and the “AUC0–60 min liver” value (MCTs [4]; 10 mg/kg) was 250 SUV min. For the same molecule, the “AUC0–60 min small intestine” value (MCTs [4]; 10 mg/kg) was 405 SUV min, the “AUC0–60 min whole blood” value (MCTs [4]; 10 mg/kg) was 125 SUV min and the “no-observed-adverse-effect-level (NOAEL)” value ([11]; Wistar rats, single bolus i.v.) was 620 µg FACH-Na/kg bodyweight. The “NOAEL relative to the equivalent to the human dose (0.1 µg/kg)” value ([11]; rats) was “approximately 1000 fold”.
